Consider 9 compounds from ChEMBL document CHEMBL1201862, “PubChem BioAssay data set” (2004).

Counter-ions that a name gives are not always drawn. The source made the active and inactive calls.

Assay [1] is described as follows: Vero cell cytotoxicity, dose response, cytotoxicity control for Vif-APOBEC3G degradation inhibitor project, Vero cells (AID 1117358). The format is functional. The settings on record: Human immunodeficiency virus 1, Vero.
The nature of assay [2]: Late stage assay provider results from the probe development effort to identify inhibitors of the Plasmodium falciparum M18 Aspartyl Aminopeptidase (M18AAP): radiolabel-based cell-based dose response assay to identify compounds that inhibit P. falciparum growth in RBCs, Set 2.. The format is functional.
Another assay has as its target Transthyretin (Homo sapiens, UniProt P02766). As to the kind of experiment: Luminescence-based cell-based high throughput dose response assay to identify activators of Transthyretin (TTR) transcription. The format is functional.
Assay [3] deals with Protein disulfide-isomerase (Homo sapiens, UniProt P07237). Kind of assay: PDI inhibitors, insulin aggregation turbidity, dose response, biochemical, absorbance, cherry-picked samples (AID 602350). The format is functional.
Chain of Protein disulfide-isomerase (P07237 whole entry): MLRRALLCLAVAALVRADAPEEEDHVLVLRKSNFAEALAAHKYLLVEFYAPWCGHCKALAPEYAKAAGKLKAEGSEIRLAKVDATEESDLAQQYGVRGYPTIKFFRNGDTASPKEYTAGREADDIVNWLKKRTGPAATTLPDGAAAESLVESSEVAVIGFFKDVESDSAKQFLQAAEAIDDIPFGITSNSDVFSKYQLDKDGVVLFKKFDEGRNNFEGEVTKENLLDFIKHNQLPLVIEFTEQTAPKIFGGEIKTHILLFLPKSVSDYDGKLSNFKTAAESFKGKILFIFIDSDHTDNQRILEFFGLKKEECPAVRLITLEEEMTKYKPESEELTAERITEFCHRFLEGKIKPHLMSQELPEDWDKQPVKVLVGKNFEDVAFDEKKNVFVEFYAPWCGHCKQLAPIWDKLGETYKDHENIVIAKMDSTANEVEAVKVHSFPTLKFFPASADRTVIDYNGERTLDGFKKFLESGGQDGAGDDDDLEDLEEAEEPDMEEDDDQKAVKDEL
Assay [4] has as its target DNA (cytosine-5)-methyltransferase 1 (Homo sapiens, UniProt P26358). As to the kind of experiment: DNMT1 methyltransferase inhibitors, confirmation, biochemical, fluorescent molecular beacon (AID 602386). The format is functional.
The target of the next assay is ELAV-like protein 1 (Homo sapiens, UniProt Q15717). As to the kind of experiment: Identify HuR specific inhibitors. The format is functional.
Chain of ELAV-like protein 1 (Q15717 whole entry): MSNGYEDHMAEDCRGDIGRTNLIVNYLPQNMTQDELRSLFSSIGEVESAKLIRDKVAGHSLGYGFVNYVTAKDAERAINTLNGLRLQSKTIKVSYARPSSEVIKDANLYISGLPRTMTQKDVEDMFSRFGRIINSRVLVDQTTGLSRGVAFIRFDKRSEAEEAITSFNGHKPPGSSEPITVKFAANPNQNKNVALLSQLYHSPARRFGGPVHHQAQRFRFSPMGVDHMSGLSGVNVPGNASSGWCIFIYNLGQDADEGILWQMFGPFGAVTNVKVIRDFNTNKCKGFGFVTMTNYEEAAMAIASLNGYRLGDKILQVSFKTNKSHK
Assay [5] in a line: cells. The settings on record: INS-1E. The format is functional, cell-based.
Assay [6] addresses T1, DNA repair protein RAD52 homolog (Homo sapiens, UniProt P43351).
T1 sequence (P43351 whole entry): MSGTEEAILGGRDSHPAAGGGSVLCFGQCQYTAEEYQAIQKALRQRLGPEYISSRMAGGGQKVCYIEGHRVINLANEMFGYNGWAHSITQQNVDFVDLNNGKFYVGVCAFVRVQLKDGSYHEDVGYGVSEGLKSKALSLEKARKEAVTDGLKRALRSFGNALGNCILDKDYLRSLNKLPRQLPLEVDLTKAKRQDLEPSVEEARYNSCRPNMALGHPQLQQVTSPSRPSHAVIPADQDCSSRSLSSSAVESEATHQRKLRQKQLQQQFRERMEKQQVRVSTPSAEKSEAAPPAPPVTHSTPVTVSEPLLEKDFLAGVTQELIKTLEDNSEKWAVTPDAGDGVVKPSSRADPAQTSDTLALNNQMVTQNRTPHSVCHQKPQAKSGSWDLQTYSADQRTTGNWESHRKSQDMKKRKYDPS
The format is functional, biochemical.

The nature of assay [7]: Dose-response inhibition of insulin secretion in a rat insulinoma line at 5 mM glucose (AID 1117331). The format is functional, cell-based. The settings on record: INS-1E.
Assay [8] in a line: cells.
The target of assay [9] is Oxysterols receptor LXR-beta (Homo sapiens, UniProt P55055). The format is functional, cell-based.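 Note: Cell-based luminescence dose-response assay of agonist activity at LXR, run as a confirmatory counterscreen to a daf-12 agonist screen; HEK293 cells with Gal4-LXR fusion and GAL4-driven luciferase reporter; agonist potency from rising luciferase signal of a Gal4-LXR reporter.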
Chain of Oxysterols receptor LXR-beta (P55055 whole entry, the tested form may be a part): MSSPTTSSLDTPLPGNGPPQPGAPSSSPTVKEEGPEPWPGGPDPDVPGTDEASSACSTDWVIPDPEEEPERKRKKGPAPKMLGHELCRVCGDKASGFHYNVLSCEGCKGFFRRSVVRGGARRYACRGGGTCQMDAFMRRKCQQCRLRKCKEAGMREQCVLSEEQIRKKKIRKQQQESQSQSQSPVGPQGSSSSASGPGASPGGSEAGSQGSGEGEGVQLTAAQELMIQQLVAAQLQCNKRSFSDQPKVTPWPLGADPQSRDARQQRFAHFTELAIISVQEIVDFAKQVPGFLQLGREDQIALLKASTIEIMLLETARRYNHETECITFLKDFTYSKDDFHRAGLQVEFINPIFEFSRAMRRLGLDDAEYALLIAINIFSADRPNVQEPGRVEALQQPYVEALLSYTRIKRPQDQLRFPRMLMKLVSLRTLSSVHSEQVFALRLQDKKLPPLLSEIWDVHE
Assay [10] addresses G-protein coupled receptor 183 (Homo sapiens, UniProt P32249). Kind of assay: SAR confirmation of small molecule antagonists of the EBI2 receptor via a luminescent beta-arrestin assa. The format is functional.
Assay [11] in a line: cytotoxicity in A549 cells, dose response, cytotoxicity control, cell-based, CellTiter-Glo luminescence, cherry-pick (AID 743484). The format is functional.
Assay [12] can be described thus: HepG2 cell cytotoxicity, dose response, cytotoxicity control, ATP luminescence, cherry-pick, set 6 (AID 1053125). The format is functional, cell-based.
Assay [13] addresses T2, RNA-binding protein pos-1 (Caenorhabditis elegans, UniProt G5EF15).
T2 sequence (G5EF15 whole entry): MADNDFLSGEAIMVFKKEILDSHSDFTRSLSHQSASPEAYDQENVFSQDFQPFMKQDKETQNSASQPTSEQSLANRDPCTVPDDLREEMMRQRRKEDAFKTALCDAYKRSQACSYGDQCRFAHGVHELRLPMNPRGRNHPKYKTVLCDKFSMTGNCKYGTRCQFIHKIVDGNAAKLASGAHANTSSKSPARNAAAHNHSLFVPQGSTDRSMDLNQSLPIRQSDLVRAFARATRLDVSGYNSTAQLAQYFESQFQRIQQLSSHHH
Kind of assay: inhibitors of POS-1/mex-3 RNA binding, dose response, biochemical, fluorescence polarization (AID 1964). (In general: In fluorescence polarisation assays a small probe gives low polarisation when free and higher when bound to something large.)

The target of assay [14] is T3, Zinc finger protein mex-5 (Caenorhabditis elegans, UniProt Q9XUB2).
T3 sequence (Q9XUB2 whole entry): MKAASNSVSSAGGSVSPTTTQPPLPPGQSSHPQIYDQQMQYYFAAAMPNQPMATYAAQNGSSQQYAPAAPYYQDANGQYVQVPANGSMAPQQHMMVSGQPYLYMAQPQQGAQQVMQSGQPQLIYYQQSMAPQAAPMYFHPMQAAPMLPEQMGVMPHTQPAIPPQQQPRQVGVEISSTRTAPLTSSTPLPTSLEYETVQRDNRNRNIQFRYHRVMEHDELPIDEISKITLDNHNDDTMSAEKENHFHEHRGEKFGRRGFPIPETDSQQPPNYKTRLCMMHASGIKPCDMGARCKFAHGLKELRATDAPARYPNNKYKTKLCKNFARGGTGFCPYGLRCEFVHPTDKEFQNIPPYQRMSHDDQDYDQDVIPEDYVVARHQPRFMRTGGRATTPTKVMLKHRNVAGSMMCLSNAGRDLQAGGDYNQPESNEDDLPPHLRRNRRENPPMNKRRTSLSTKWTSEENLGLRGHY
As to the kind of experiment: MEX-5/TCR-2 RNA interaction inhibitors, dose response, biochemical, C. elegans, fluorescence polarization (AID 1960).

Chain of DNA (cytosine-5)-methyltransferase 1 (P26358 whole entry): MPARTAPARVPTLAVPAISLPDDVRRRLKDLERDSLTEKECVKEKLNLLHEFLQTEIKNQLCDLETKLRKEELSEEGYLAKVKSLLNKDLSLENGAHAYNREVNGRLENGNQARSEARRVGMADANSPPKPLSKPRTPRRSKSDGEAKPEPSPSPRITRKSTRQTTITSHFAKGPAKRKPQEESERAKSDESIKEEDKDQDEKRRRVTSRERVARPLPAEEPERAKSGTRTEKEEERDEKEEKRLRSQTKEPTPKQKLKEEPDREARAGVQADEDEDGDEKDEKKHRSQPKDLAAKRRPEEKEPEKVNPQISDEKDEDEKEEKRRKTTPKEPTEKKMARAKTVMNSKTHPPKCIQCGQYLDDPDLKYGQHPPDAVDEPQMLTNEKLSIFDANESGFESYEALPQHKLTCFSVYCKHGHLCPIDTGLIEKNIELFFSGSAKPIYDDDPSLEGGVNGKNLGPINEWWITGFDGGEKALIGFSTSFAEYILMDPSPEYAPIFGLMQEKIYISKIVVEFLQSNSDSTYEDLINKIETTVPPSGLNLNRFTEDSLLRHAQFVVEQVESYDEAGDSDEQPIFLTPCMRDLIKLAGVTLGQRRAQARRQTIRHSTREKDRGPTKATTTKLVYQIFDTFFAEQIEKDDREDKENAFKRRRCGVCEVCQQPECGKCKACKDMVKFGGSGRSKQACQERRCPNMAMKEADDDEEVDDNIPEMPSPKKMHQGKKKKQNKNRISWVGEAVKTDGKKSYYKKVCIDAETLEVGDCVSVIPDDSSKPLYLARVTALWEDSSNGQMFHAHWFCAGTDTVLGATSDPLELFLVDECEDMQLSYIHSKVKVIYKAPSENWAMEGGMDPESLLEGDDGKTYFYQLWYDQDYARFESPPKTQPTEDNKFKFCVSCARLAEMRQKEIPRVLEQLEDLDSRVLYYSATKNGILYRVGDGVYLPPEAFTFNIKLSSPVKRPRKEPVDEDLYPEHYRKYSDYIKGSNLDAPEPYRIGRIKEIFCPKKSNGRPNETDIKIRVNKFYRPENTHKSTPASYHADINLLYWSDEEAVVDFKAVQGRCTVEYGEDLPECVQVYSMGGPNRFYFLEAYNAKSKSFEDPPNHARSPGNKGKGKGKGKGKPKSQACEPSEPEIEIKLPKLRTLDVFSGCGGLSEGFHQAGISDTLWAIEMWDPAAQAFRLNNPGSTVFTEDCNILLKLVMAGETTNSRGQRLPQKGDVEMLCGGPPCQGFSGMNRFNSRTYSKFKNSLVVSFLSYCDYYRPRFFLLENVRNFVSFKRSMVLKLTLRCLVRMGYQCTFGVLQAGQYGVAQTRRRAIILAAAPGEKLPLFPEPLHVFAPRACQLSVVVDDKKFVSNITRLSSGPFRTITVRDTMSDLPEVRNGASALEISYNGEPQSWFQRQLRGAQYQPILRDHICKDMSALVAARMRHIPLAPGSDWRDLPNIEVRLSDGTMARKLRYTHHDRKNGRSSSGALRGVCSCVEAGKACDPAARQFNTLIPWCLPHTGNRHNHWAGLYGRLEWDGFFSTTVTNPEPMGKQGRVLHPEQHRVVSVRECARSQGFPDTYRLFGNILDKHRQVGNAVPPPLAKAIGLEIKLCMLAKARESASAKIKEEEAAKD
Chain of G-protein coupled receptor 183 (P32249 whole entry): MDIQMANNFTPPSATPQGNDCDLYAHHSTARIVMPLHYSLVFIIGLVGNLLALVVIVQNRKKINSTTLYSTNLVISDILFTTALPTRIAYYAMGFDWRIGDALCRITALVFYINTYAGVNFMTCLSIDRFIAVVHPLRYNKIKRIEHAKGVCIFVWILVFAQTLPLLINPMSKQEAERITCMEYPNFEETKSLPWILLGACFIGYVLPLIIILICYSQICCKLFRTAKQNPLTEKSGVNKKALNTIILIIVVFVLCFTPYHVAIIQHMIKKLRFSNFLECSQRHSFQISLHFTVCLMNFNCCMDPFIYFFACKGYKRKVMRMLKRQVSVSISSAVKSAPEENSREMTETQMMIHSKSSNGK

For orientation: CC50 means the concentration at which the toxic effect on the cells reaches its halfway point. As to `Cn1c(Cn2c(=O)sc3ccccc32)nnc1SCC(=O)NCc1ccc(F)cc1`, the CC50 in assay [1] is > 40 µM (active).

A word on the IC50: it is the point on the concentration scale where inhibition reaches its midpoint. Consider `Cc1cccc2c(NCCc3ccc(O)c(O)c3)ccnc12`, for which the concentration for half-maximal inhibition (IC50) in [2] is 4.7 µM (active).

For orientation: EC50 means the concentration that produces a half-maximal response. With `Cc1c(NS(=O)(=O)c2ccc(NC3CCCC3)c([N+](=O)[O-])c2)c(=O)n(-c2ccccc2)n1C`, the EC50 at Transthyretin is > 167 µM (inactive).

For orientation: AC50 means the midpoint of the concentration-response curve, whichever way the signal moves. Turning to `COC(=O)CC1OCC=C2CN3CCC45C6=CC(=O)C(=O)C([N+](=O)[O-])=C6NC4C1C2CC35` (stereo unspecified), the half-maximal activity concentration (AC50) in assay [3] was 8.03 µM (active). Further, the IC50 in assay [4] is 6.06 µM (active); at ELAV-like protein 1, 69.6 µM (inactive).

In the case of `CCC(=O)c1ccc2c(c1)N(CCCN(C)C)c1ccccc1S2` [PROPIONYLPROMAZINE HYDROCHLORIDE], the IC50 in the assay “cells [5]” is > 33.3 µM (inactive); in [7] it was 10.7 µM (inactive). Moreover, in [6], the AC50 was 31.4 µM (active).

Consider `O=C1C(/C=N/c2ccccc2)=C(O)c2ccccc21`, for which the EC50 (in “cells [8]”; in assay [9]) was > 67.5 µM (inactive) each time.

With `O=C(/C=C/c1ccc(F)cc1)N1CCN(S(=O)(=O)c2cccc(F)c2)CC1`, in assay [10], the IC50 is 0.0196 µM (active).

For `CC(CNc1ccc(Cl)cc1)(CNc1ccc(Cl)cc1)[N+](=O)[O-]`, the AC50 in assay [11] is > 52 µM (inactive).

Regarding `N#CC1=C(N)OC2=C(C(=O)CCC2)C1c1cc2c(cc1Br)OCO2` (stereo unspecified), in assay [12], the AC50 is > 52 µM (inactive). The EC50 in assay [13] and in assay [14] was > 300 µM (not active) each time.
